Laboratory results from patent US8076487B2, “Pyridone derivative and herbicide” (Kumiai Chemical Industry Co., Ltd., priority 2006, dated 2011).

Tests used:
Assay type in all cases: in vivo
[1] = test system: Japanese bulrush (Scirpus juncoides Roxb.); test: Test Example 1: herbicidal effect by soil application to paddy field; settings: paddy field soil application; active ingredient 1,000 g per 1 hectare; wettable powder added dropwise to water surface the day after sowing; examined on the 21st day after application
How it was run: (§1)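 Under greenhouse conditions, seeds sown on puddled paddy soil in 100 cm2 pots under 3 cm of standing water received the test compound; injury was assessed with a standard scoring scheme three weeks (day 21) after treatment.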

[2] = test system: early watergrass (Echinochloa oryzicola Vasing); test: as above; settings: paddy field soil application; active ingredient 1,000 g per 1 hectare; wettable powder added dropwise to water surface the day after sowing; examined on the 21st day after application
How it was run: as §1

[3] = test system: heartshape false pickerelweed (Monochoria vaginalis (Burm.f.) C.Presl); test: as above; settings: paddy field soil application; active ingredient 1,000 g per 1 hectare; wettable powder added dropwise to water surface the day after sowing; examined on the 21st day after application
How it was run: as §1

[4] = test system: barnyardgrass (Echinochloa crus-galli (L.) P. Beauv. var. crus-galli); test: Test Example 2: herbicidal effect by soil application to upland field; settings: soil surface spray, upland field soil, 1,000 g active ingredient per hectare, 21st day after application
Description: (§2) [table] Test Example 2 Test on Herbicidal Effect by Soil Application to Upland field In a 80 cm2 plastic pot, field soil was filled. Seeds of barnyardgrass (Echinochloa crus-galli (L.) P. Beauv. var. crus-galli), green foxtail (Setaria viridis (L.) P. Beauv.), velvetleaf (Abutilon theophrasti medicus), and slender amaranth (Amaranthus viridis L.) were sown and covered with soils. The wettable powder prepared according to Formulation Example 1 was diluted in water and a 1,000 liter equivalent amount per 1 hectare so that the active ingredient becomes 1,000 g per 1 hectare was uniformly sprayed on a soil surface using a small sprayer. Then, on the 21st day after the application to the plants grew in a greenhouse, the herbicidal effect was examined in accordance with a standard shown in Table 34.

[5] = test system: green foxtail (Setaria viridis (L.) P. Beauv.); test: as above; settings: soil surface spray, upland field soil, 1,000 g active ingredient per hectare, 21st day after application
Description: as §2

[6] = test system: slender amaranth (Amaranthus viridis L.); test: as above; settings: soil surface spray, upland field soil, 1,000 g active ingredient per hectare, 21st day after application
Description: as §2

[7] = test system: velvetleaf (Abutilon theophrasti medicus); test: as above; settings: soil surface spray, upland field soil, 1,000 g active ingredient per hectare, 21st day after application
Description: as §2

| SMILES | herbicidal effect, Scirpus juncoides Roxb. [1] | herbicidal effect, Echinochloa oryzicola Vasing [2] | herbicidal effect, Monochoria vaginalis (Burm. f.) C. Presl [3] | herbicidal effect (index), Barnyardgrass [4] | herbicidal effect (index), Green Foxtail [5] | herbicidal effect (index), Slender Amaranth [6] | herbicidal effect (index), Velvetleaf [7] |
| --- | --- | --- | --- | --- | --- | --- | --- |
| O=C1CCCC(O)=C1C(=O)c1ccc(C(F)(F)F)n(Cc2cc(Cl)nc(Cl)c2)c1=O [I-124] | 5 (90% or more of herbicidal effect and crop phytotoxicity) | 5 (90% or more of herbicidal effect and crop phytotoxicity) | 5 (90% or more of herbicidal effect and crop phytotoxicity) | 5 (90% or more of herbicidal effect and crop phytotoxicity) | 5 (90% or more of herbicidal effect and crop phytotoxicity) | 5 (90% or more of herbicidal effect and crop phytotoxicity) | 5 (90% or more of herbicidal effect and crop phytotoxicity) |
| CCCCCNn1c(C(F)(F)F)ccc(C(=O)C2=C(O)CCCC2=O)c1=O [I-165] | 5 (90% or more of herbicidal effect and crop phytotoxicity) | 5 (90% or more of herbicidal effect and crop phytotoxicity) | 5 (90% or more of herbicidal effect and crop phytotoxicity) | 5 (90% or more of herbicidal effect and crop phytotoxicity) | 3 (50 to less than 70% of herbicidal effect and crop phytotoxicity) | 5 (90% or more of herbicidal effect and crop phytotoxicity) | 5 (90% or more of herbicidal effect and crop phytotoxicity) |
| O=C1CCCC(O)=C1C(=O)c1ccc(C(F)(F)F)n(NCCCCl)c1=O [I-167] | 5 (90% or more of herbicidal effect and crop phytotoxicity) | 5 (90% or more of herbicidal effect and crop phytotoxicity) | 5 (90% or more of herbicidal effect and crop phytotoxicity) | 5 (90% or more of herbicidal effect and crop phytotoxicity) | 5 (90% or more of herbicidal effect and crop phytotoxicity) | 5 (90% or more of herbicidal effect and crop phytotoxicity) | 5 (90% or more of herbicidal effect and crop phytotoxicity) |
| CN(c1ccccc1)n1c(C(F)(F)F)ccc(C(=O)C2=C(O)CCCC2=O)c1=O [I-182] | 5 (90% or more of herbicidal effect and crop phytotoxicity) | 5 (90% or more of herbicidal effect and crop phytotoxicity) | 5 (90% or more of herbicidal effect and crop phytotoxicity) | 5 (90% or more of herbicidal effect and crop phytotoxicity) | 4 (70 to less than 90% of herbicidal effect and crop phytotoxicity) | 5 (90% or more of herbicidal effect and crop phytotoxicity) | 5 (90% or more of herbicidal effect and crop phytotoxicity) |
| COn1c(C(F)(F)F)ccc(C(=O)C2=C(O)CCCC2=O)c1=O [I-202] | 5 (90% or more of herbicidal effect and crop phytotoxicity) | 5 (90% or more of herbicidal effect and crop phytotoxicity) | 5 (90% or more of herbicidal effect and crop phytotoxicity) | 5 (90% or more of herbicidal effect and crop phytotoxicity) | 5 (90% or more of herbicidal effect and crop phytotoxicity) | 5 (90% or more of herbicidal effect and crop phytotoxicity) | 5 (90% or more of herbicidal effect and crop phytotoxicity) |
| CCn1c(C(F)(F)Cl)ccc(C(=O)C2=C(O)CCCC2=O)c1=O [I-226] | 5 (90% or more of herbicidal effect and crop phytotoxicity) | 5 (90% or more of herbicidal effect and crop phytotoxicity) | 5 (90% or more of herbicidal effect and crop phytotoxicity) | 4 (70 to less than 90% of herbicidal effect and crop phytotoxicity) | 3 (50 to less than 70% of herbicidal effect and crop phytotoxicity) | 5 (90% or more of herbicidal effect and crop phytotoxicity) | 5 (90% or more of herbicidal effect and crop phytotoxicity) |
| Cc1ccc(C(=O)C2=C(O)CCCC2=O)c(=O)n1-c1ccc(Cl)cc1 [I-233] | 5 (90% or more of herbicidal effect and crop phytotoxicity) | 5 (90% or more of herbicidal effect and crop phytotoxicity) | 5 (90% or more of herbicidal effect and crop phytotoxicity) | 4 (70 to less than 90% of herbicidal effect and crop phytotoxicity) | 3 (50 to less than 70% of herbicidal effect and crop phytotoxicity) | 5 (90% or more of herbicidal effect and crop phytotoxicity) | 5 (90% or more of herbicidal effect and crop phytotoxicity) |
| Cn1c(C(F)(F)F)ccc(C(=O)C2=C(Sc3ccc(Cl)cc3Cl)CCCC2=O)c1=O [II-14] | 5 (90% or more of herbicidal effect and crop phytotoxicity) | 5 (90% or more of herbicidal effect and crop phytotoxicity) | 5 (90% or more of herbicidal effect and crop phytotoxicity) | 4 (70 to less than 90% of herbicidal effect and crop phytotoxicity) | 3 (50 to less than 70% of herbicidal effect and crop phytotoxicity) | 5 (90% or more of herbicidal effect and crop phytotoxicity) | 5 (90% or more of herbicidal effect and crop phytotoxicity) |
| COC1=C(C(=O)c2ccc(C(F)(F)F)n(C)c2=O)C(=O)CCC1 [II-22] | 5 (90% or more of herbicidal effect and crop phytotoxicity) | 5 (90% or more of herbicidal effect and crop phytotoxicity) | 5 (90% or more of herbicidal effect and crop phytotoxicity) | 4 (70 to less than 90% of herbicidal effect and crop phytotoxicity) | 4 (70 to less than 90% of herbicidal effect and crop phytotoxicity) | 5 (90% or more of herbicidal effect and crop phytotoxicity) | 5 (90% or more of herbicidal effect and crop phytotoxicity) |
| O=C(C1=C(O)C2CCC(C2)C1=O)c1ccc(C(F)(F)F)n(-c2c(F)cccc2F)c1=O (stereo not drawn) [III-37] | 4 (70 to less than 90% of herbicidal effect and crop phytotoxicity) | 5 (90% or more of herbicidal effect and crop phytotoxicity) | 5 (90% or more of herbicidal effect and crop phytotoxicity) | 4 (70 to less than 90% of herbicidal effect and crop phytotoxicity) | 4 (70 to less than 90% of herbicidal effect and crop phytotoxicity) | 4 (70 to less than 90% of herbicidal effect and crop phytotoxicity) | 5 (90% or more of herbicidal effect and crop phytotoxicity) |
| Cn1c(C(F)(F)F)ccc(C(=O)C2=C(O)C3C=CC(C3)C2=O)c1=O (stereo not drawn) [III-42] | 5 (90% or more of herbicidal effect and crop phytotoxicity) | 5 (90% or more of herbicidal effect and crop phytotoxicity) | 5 (90% or more of herbicidal effect and crop phytotoxicity) | 4 (70 to less than 90% of herbicidal effect and crop phytotoxicity) | 3 (50 to less than 70% of herbicidal effect and crop phytotoxicity) | 5 (90% or more of herbicidal effect and crop phytotoxicity) | 5 (90% or more of herbicidal effect and crop phytotoxicity) |
| CC(CCn1c(C(F)(F)F)ccc(C(=O)c2cnn(C)c2O)c1=O)=C(F)F [IV-32] | 5 (90% or more of herbicidal effect and crop phytotoxicity) | 5 (90% or more of herbicidal effect and crop phytotoxicity) | 5 (90% or more of herbicidal effect and crop phytotoxicity) | 4 (70 to less than 90% of herbicidal effect and crop phytotoxicity) | 3 (50 to less than 70% of herbicidal effect and crop phytotoxicity) | 5 (90% or more of herbicidal effect and crop phytotoxicity) | 5 (90% or more of herbicidal effect and crop phytotoxicity) |
